Reference: patent publication US8932597B2 (priority 2008, dated 2015)

System: anti-M2 human monoclonal antibody Z3G1
Format: binding

Substance | Signal (peptides that show specific binding to Z3G1) | Signal (peptides that bind to Z3G1)
1562 (SLLCEVGSCLCEC; epitope peptide) [compound 1562] | 2614 | 
1337 (MCLLTEVGMSLCTEV; epitope peptide) [compound 1337] |  | 2513
1442 (CLTEVETPIRLLTEVETPICLTEVETPIR; epitope peptide; MISC_FEATURE (1)..(1): C is an attachment site for a CLIP; MISC_FEATURE (10)..(10): R is an attachment site for a CLIP; MISC_FEATURE (11)..(11): L is an attachment site for a CLIP; MISC_FEATURE (29)..(29): R is an attachment site for a CLIP) [compound 1442] |  | 2057
1440 (CTEVETPIRNSLLTEVETPCLTEVETPIR; epitope peptide; MISC_FEATURE (1)..(1): C is an attachment site for a CLIP; MISC_FEATURE (10)..(10): N is an attachment site for a CLIP; MISC_FEATURE (11)..(11): S is an attachment site for a CLIP; MISC_FEATURE (29)..(29): R is an attachment site for a CLIP) [compound 1440] |  | 2705
1347 (MSLLCEVGMSLLTCV; epitope peptide) [compound 1347] |  | 2784
1381 (CLLTEVETPCRNEWG; epitope peptide) [compound 1381] |  | 2074
1267 (MSILTEVETPIRNEWGCRCN; epitope peptide) [compound 1267] |  | 2582
1262 (MQLLTEVETPIRNEWGCRCN; epitope peptide) [compound 1262] |  | 2526
1460 (CEVETPIRNELLTEVETPICTEVETPIRN; epitope peptide; MISC_FEATURE (1)..(1): C is an attachment site for a CLIP; MISC_FEATURE (10)..(10): E is an attachment site for a CLIP; MISC_FEATURE (11)..(11): L is an attachment site for a CLIP; MISC_FEATURE (29)..(29): N is an attachment site for a CLIP) [compound 1460] |  | 1620
1550 (SLLCEVGCLLTEV; epitope peptide) [compound 1550] | 1997 | 
1293 (MSLLSEVETPIRNEWGCRCN; epitope peptide) [compound 1293] |  | 2790
1574 (RLLTEVETPIRNEWGCRCNDSSD; epitope peptide) [compound 1574] | 1338 | 
1338 (MSLLCEVGMSLCTEV; epitope peptide) [compound 1338] |  | 2595
1264 (MVLLTEVETPIRNEWGCRCN; epitope peptide) [compound 1264] |  | 2465
1578 (SLLAEVETPIRNEWGCRCNDSSD; epitope peptide) [compound 1578] | 2356 | 
1579 (SLLDEVETPIRNEWGCRCNDSSD; epitope peptide) [compound 1579] | 2276 | 
1375 (SLLTEVETPIRNEWCC; epitope peptide) [compound 1375] |  | 1813
1554 (SLLCEVGSLLCEV; epitope peptide) [compound 1554] | 2399 | 
1567 (HLLTEVETPIRNEWGCRCNDSSD; epitope peptide) [compound 1567] | 1946 | 
1587 (SLLNEVETPIRNEWGCRCNDSSD; epitope peptide) [compound 1587] | 2425 | 
